Consider six molecules from BindingDB's records for doi:10.1016/j.ejmech.2017.06.016 (University of Science and Technology of China, 2017).

The term IC50 denotes the point on the concentration scale where inhibition reaches its midpoint. A lower IC50 goes with greater potency.

In the assay the target is T1, Cytoplasmic tyrosine-protein kinase BMX (Homo sapiens, UniProt P51813).
T1 sequence (P51813 whole entry): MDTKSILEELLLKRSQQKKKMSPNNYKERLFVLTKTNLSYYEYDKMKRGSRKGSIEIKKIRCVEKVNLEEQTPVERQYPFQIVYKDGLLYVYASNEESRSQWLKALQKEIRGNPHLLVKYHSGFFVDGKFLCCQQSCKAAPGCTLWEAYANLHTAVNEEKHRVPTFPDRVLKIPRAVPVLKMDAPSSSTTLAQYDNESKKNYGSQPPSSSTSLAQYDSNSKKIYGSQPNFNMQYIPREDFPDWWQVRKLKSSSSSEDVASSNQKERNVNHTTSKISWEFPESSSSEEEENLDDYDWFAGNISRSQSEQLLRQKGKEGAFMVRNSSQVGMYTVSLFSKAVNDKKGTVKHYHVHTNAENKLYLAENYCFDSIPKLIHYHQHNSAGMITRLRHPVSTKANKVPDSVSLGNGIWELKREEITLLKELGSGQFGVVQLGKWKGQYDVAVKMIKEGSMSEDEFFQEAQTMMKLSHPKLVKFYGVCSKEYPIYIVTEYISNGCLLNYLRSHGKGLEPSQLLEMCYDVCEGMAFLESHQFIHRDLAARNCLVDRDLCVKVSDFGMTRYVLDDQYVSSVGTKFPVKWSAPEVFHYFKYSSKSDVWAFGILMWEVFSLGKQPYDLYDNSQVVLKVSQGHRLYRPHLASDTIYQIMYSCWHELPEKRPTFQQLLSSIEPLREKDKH
Put plainly: ChEBML_1715921.
Protocol: Inhibition of recombinant full length His-tagged human BMX expressed in baculovirus expression system using poly (4:1 Glu, Tyr) as substrate preincubated for 1 hr followed by substrate addition measured after 1 hr by ADP-glo assay
`C=CC(=O)Nc1cc(-n2c(=O)ccc3cnc4ccc(-c5ccc6c(c5)OCCO6)cc4c32)ccc1C` [QL-XII-115] showed an IC50 of 13 nM. The value for `C=CC(=O)Nc1cccc(-n2c(=O)ccc3cnc4ccc(-c5ccc(N)nc5)cc4c32)c1` [QL-X-132] was 16 nM; that for `C=CC(=O)Nc1cccc(-n2c(=O)ccc3cnc4ccc(-c5cn[nH]c5)cc4c32)c1` [QL-XI-13] was 11 nM; that for `C=CC(=O)Nc1cc(-n2c(=O)ccc3cnc4ccc(-c5cnc6ccccc6c5)cc4c32)ccc1C` [QL-XII-54] was 19 nM. For `C=CC(=O)N1CCc2ccc(-n3c(=O)ccc4cnc5ccc(-c6ccc(N)nc6)cc5c43)cc21` [QL-XII-45], the half-maximal inhibitory concentration (IC50) was found to be 13 nM. As to `C=CC(=O)Nc1cc(-n2c(=O)ccc3cnc4ccc(-c5ccsc5)cc4c32)ccc1C` [QL-XI-75], the 50% inhibitory concentration (IC50) was found to be 20 nM.
